From PubChem BioAssay (NCI)
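GI50 = concentration required for 50% inhibition of growth. TGI denotes the concentration required for complete inhibition of growth.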

Experiments:
Assay in all cases: DTP human tumour cell line panel, 384-well format
786-0 renal = system: 786-0 renal
A498 renal = system: A498 renal
A549 NSCLC = system: A549 NSCLC
ACHN renal = system: ACHN renal
BT-549 breast = system: BT-549 breast
CAKI-1 renal = system: CAKI-1 renal
CCRF-CEM leukemia = system: CCRF-CEM leukemia
COLO 205 colon = system: COLO 205 colon
DU-145 prostate = system: DU-145 prostate
EKVX NSCLC = system: EKVX NSCLC
HCC-2998 colon = system: HCC-2998 colon
HCT-15 colon = system: HCT-15 colon
HL-60(TB) leukemia = system: HL-60(TB) leukemia
HOP-62 NSCLC = system: HOP-62 NSCLC
HOP-92 NSCLC = system: HOP-92 NSCLC
HS 578T breast = system: HS 578T breast
HT29 colon = system: HT29 colon
IGROV1 ovarian = system: IGROV1 ovarian
KM12 colon = system: KM12 colon
M14 melanoma = system: M14 melanoma
MALME-3M melanoma = system: MALME-3M melanoma
MCF7 breast = system: MCF7 breast
MDA-MB-231 breast = system: MDA-MB-231 breast
MDA-MB-435 melanoma = system: MDA-MB-435 melanoma
MDA-MB-468 breast = system: MDA-MB-468 breast
MOLT-4 leukemia = system: MOLT-4 leukemia
NCI-H226 lung = system: NCI-H226 lung
NCI-H23 lung = system: NCI-H23 lung
NCI-H322M lung = system: NCI-H322M lung
NCI-H460 NSCLC = system: NCI-H460 NSCLC
NCI-H522 lung = system: NCI-H522 lung
NCI/ADR-RES ovarian = system: NCI/ADR-RES ovarian
OVCAR-3 ovarian = system: OVCAR-3 ovarian
OVCAR-4 ovarian = system: OVCAR-4 ovarian
OVCAR-5 ovarian = system: OVCAR-5 ovarian
OVCAR-8 ovarian = system: OVCAR-8 ovarian
PC-3 prostate = system: PC-3 prostate
RPMI-8226 leukemia = system: RPMI-8226 leukemia
RXF 393 renal = system: RXF 393 renal
SF-268 CNS = system: SF-268 CNS
SF-295 CNS = system: SF-295 CNS
SF-539 CNS = system: SF-539 CNS
SK-MEL-2 melanoma = system: SK-MEL-2 melanoma
SK-MEL-28 melanoma = system: SK-MEL-28 melanoma
SK-MEL-5 melanoma = system: SK-MEL-5 melanoma
SK-OV-3 ovarian = system: SK-OV-3 ovarian
SN12C renal = system: SN12C renal
SNB-19 CNS = system: SNB-19 CNS
SNB-75 CNS = system: SNB-75 CNS
SR leukemia = system: SR leukemia
SW-620 colon = system: SW-620 colon
T-47D breast = system: T-47D breast
TK-10 renal = system: TK-10 renal
U251 glioblastoma = system: U251 glioblastoma
UACC-257 melanoma = system: UACC-257 melanoma
UACC-62 melanoma = system: UACC-62 melanoma

## O=c1cc(N2CCOCC2)oc2c(-c3ccccc3)cccc12
786-0 renal
  GI50: 7.17 µM
  TGI: 93.5 µM
A498 renal
  GI50: 1860 nM
  TGI: 8.98 µM
A549 NSCLC
  GI50: 5.87 µM
  TGI: 27.9 µM
ACHN renal
  GI50: 7.85 µM
  TGI: 26.8 µM
BT-549 breast
  GI50: 2610 nM
  TGI: 14.4 µM
CAKI-1 renal
  GI50: 1890 nM
  TGI: 9.03 µM
CCRF-CEM leukemia
  GI50: 4.08 µM
  TGI: 16.1 µM
COLO 205 colon
  GI50: 10.1 µM
  TGI: 22.6 µM
DU-145 prostate
  GI50: 8.8 µM
  TGI: 55.5 µM
EKVX NSCLC
  GI50: 4.43 µM
  TGI: 26.7 µM
HCC-2998 colon
  GI50: 12.3 µM
  TGI: 33 µM
HCT-15 colon
  GI50: 6.35 µM
  TGI: 90.2 µM
HL-60(TB) leukemia
  GI50: 2600 nM
  TGI: 12.6 µM
HOP-62 NSCLC
  GI50: 5.17 µM
  TGI: 32.8 µM
HOP-92 NSCLC
  GI50: 4.79 µM
  TGI: 43.2 µM
HS 578T breast
  GI50: 2780 nM
  TGI: 9.32 µM
HT29 colon
  GI50: 6.69 µM
  TGI: 28.7 µM
IGROV1 ovarian
  GI50: 2540 nM
  TGI: 7.63 µM
KM12 colon
  GI50: 14 µM
  TGI: 81.7 µM
M14 melanoma
  GI50: 4.81 µM
  TGI: 29 µM
MALME-3M melanoma
  GI50: 2120 nM
  TGI: 8.78 µM
MCF7 breast
  GI50: 3 µM
  TGI: 25.6 µM
MDA-MB-231 breast
  GI50: 4.13 µM
  TGI: 45.8 µM
MDA-MB-435 melanoma
  GI50: 10.3 µM
  TGI: 32.1 µM
MDA-MB-468 breast
  GI50: 2240 nM
  TGI: 7.78 µM
MOLT-4 leukemia
  GI50: 3.86 µM
  TGI: 15.2 µM
NCI-H226 lung
  GI50: 3.45 µM
  TGI: 10.9 µM
NCI-H23 lung
  GI50: 8.85 µM
  TGI: 32.4 µM
NCI-H322M lung
  GI50: 12.7 µM
  TGI: 73.2 µM
NCI-H460 NSCLC
  GI50: 5.91 µM
  TGI: 66.3 µM
NCI-H522 lung
  GI50: 2440 nM
  TGI: 10.9 µM
NCI/ADR-RES ovarian
  GI50: 5.08 µM
  TGI: 21.8 µM
OVCAR-3 ovarian
  GI50: 6.36 µM
  TGI: 27.9 µM
OVCAR-4 ovarian
  GI50: 1760 nM
  TGI: 9.3 µM
OVCAR-5 ovarian
  GI50: 4.02 µM
  TGI: 39.1 µM
OVCAR-8 ovarian
  GI50: 4.9 µM
  TGI: 32.1 µM
PC-3 prostate
  GI50: 3.18 µM
  TGI: 18.3 µM
RPMI-8226 leukemia
  GI50: 2460 nM
  TGI: 8.77 µM
RXF 393 renal
  GI50: 2940 nM
  TGI: 16.6 µM
SF-268 CNS
  GI50: 5.91 µM
  TGI: 28.1 µM
SF-295 CNS
  GI50: 17.8 µM
  TGI: > 100 µM
SF-539 CNS
  GI50: 10.1 µM
  TGI: 37 µM
SK-MEL-2 melanoma
  GI50: 20.1 µM
  TGI: 38.9 µM
SK-MEL-28 melanoma
  GI50: 5.44 µM
  TGI: 30.7 µM
SK-MEL-5 melanoma
  GI50: 10.8 µM
  TGI: 23.5 µM
SK-OV-3 ovarian
  GI50: 3.64 µM
  TGI: 19.7 µM
SN12C renal
  GI50: 8.03 µM
  TGI: 97.5 µM
SNB-19 CNS
  GI50: 23.7 µM
  TGI: > 100 µM
SNB-75 CNS
  GI50: 1270 nM
  TGI: 12.2 µM
SR leukemia
  GI50: 2200 nM
  TGI: 5.98 µM
SW-620 colon
  GI50: 18.9 µM
  TGI: > 100 µM
T-47D breast
  GI50: 3.6 µM
  TGI: 23.4 µM
TK-10 renal
  GI50: 2790 nM
  TGI: 15.4 µM
U251 glioblastoma
  GI50: 16.4 µM
  TGI: 58.7 µM
UACC-257 melanoma
  GI50: 16.9 µM
  TGI: 51.3 µM
UACC-62 melanoma
  GI50: 8.87 µM
  TGI: 23.3 µM
